Assay results: patent publication US20220273823A1, “THERANOSTIC CONJUGATES” (Ariel Scientific Innovations Ltd., priority 2019, published 2022)
Read-outs that look alike come from different tables or passages of the source. One block for each compound: values may come before it.

How the values were obtained:
Panc-1 = assay: XTT cell survival assay (growth inhibition), Panc-1; format: cell-based, human; conditions: Panc-1, XTT, up to 25 μM
Experimental: (§1) The cytotoxicity of the peptide-drug conjugates was determined by measuring the mitochondrial enzyme activity, using a commercial XTT assay kit. All samples were prepared in PBS pH 7.4 contained 3% DMSO. The Cells were cultured in micro wells at a concentration 5-10×10^4 cells/well. The cells were washed and fresh cell medium containing different concentrations (up to 25 μM) of the conjugates were added and the cells were incubated for 10 minutes. The cultures were washed and then given a fresh medium and cultured for 48 hours and 72 hours. At the end of the second incubation, XTT reagent was added and the cells were re-incubated for additional 2-4 hours. During that time the absorbencies in the wells were measured with a TECAN Infinite M200 ELISA reader at 480 nm and 680 nm. The difference in the absorbencies measurements at these two wavelengths was used for calculating the percentage Growth Inhibition (GI) in test wells compared to two controls: cells that were exposed to the medium and solvent, and those which were exposed to a solvent-free medium. All the tests were done in triplicate.

CHO = assay: XTT cell survival assay (growth inhibition), CHO; format: cell-based, Chinese hamster; conditions: up to 25 μM
Experimental: as §1

[1] = Spectral properties of RD, IRD-CLB and 5-CLB in PB and CM; format: physicochemical
Experimental: The spectral properties of the dye RD and its conjugates IRD-CLB and 5-CLB were measured at the concentrations (c) of 0.6 μM in 10 mM phosphate buffer pH 7.5 (PB) and cell medium pH 7.5 (CM), both containing 20% of acetonitrile (ACN) to improve solubility of the compounds.
Table 2 presents the absorption (λmaxAb) and emission (λmaxFl) maxima, extinction coefficients (ε) and fluorescence quantum yields (ΦF) of the RD dye and IRD-CLB and 5-CLB conjugates measured at 25° C. in 10 mM phosphate buffer pH 7.5 (PB) and cell medium pH 7.5 (CM).
The biodegradable ester linker (BL) in IRD-CLB and 5-CLB can be hydrolyzed to release free CLB and, accordingly, IRD turns into RD, which is accompanied by a noticeable change in the spectral properties. The time-dependent emission spectra were recorded in PB and CM (see, FIGS. 9A-D) using the excitation wavelengths 720 nm and 532 nm. The first one enabled monitoring of the decrease in the concentration of IRD-CLB and 5-CLB, while the second one—the increase in the concentration of RD and OctA-RD. Only the NIR fluorescence of IRD-CLB and 5-CLB was detected, when excited at 720 nm; and only the red fluorescence of RD and OctA-RD was detected, when excited at 532 nm.
Absorption spectra were recorded on a Jasco V-730 UV-Vis spectrophotometer and the fluorescence spectra were measured on Edinburgh FS5 spectrofluorometer. The absorption and fluorescence spectra and the quantum yields (ΦF) were measured in a 1-cm quartz cell at ˜0.5 μM dye concentrations in PB 10 mmol buffer pH 7.4 at 25° C. and cell medium pH 7.4. Excitation wavelength was 720 nm and 532 nm. The recorded fluorescence spectra were corrected using the wavelength-dependent instrument sensitivity coefficients. Absorption and emission maxima were measured with accuracy of ±0.3 nm and ±0.5 nm, respectively, and rounded. For the determination of the quantum yields, the integrated relative intensities were measured versus ICG™ in methanol as the reference (ΦF=0.043) and Cy3™ in PBS (ΦF=0.043). The absorbance values measured for the samples and the reference at the excitation wavelength were 0.04-0.06 measured in a 1-cm cell. The absolute quantum yields were calculated according to Equation 1.

[2] = Absorption and emission spectra of XCy, XCy-CLB and OCTA-G-XCy-CLB in PB and CM; format: physicochemical; conditions: for λmaxFl: λex 650 nm; for absorption maximum / fluorescence: in PB and CM
Experimental: The absorption and emission spectra of XCy, XCy-CLB and OCTA-G-XCy-CLB were investigated in two different conditions, 10 mM phosphate buffer pH 7.4 containing 10% methanol (PB) and cell medium pH 7.4 containing 10% methanol (CM) (see, Table 1 below). CM was taken as a model of normal physiological conditions during drug delivery in the experiments with cells. A RPMI-1640 standard cell medium that contains 50 mL fetal bovine serum (FBS), 5 mL penicillin (10,000 U/mL), 5 mL streptomycin (10 mg/mL), 5 mL of 200 mM glutamine, and 5.3 mg/L phenol red indicator was utilized. FBS contains enzyme aspartate-aminotransferase that facilitates the ester bond cleavage.
(§2) Absorption spectra were recorded on a Jasco V-730 UV-Vis spectrophotometer and the fluorescence spectra were measured on Edinburgh FS5 spectrofluorometer. The absorption and fluorescence spectra were measured in 1-cm quartz cells at about 0.5 μM dye concentrations in PB 10 mmol buffer pH 7.4 at 25° C. and cell medium pH 7.4. Excitation wavelength was 650 nm. All the solutions were filtered in PVDF 0.45 μm filter before taking spectrum.

[3] = Time-dependent absorption/fluorescence CLB cleavage profiles of XCy-CLB and OCTA-G-XCy-CLB in PB and cell medium; format: in vitro ADME; conditions: read-out: CLB release half-life τ1/2 (converted)
Experimental: To estimate the rate of the CLB release, the time-dependent absorption and fluorescence spectra of XCy-CLB and OCTA-G-XCy-CLB were measured in PB and CM (see, FIGS. 5A-H). With respect to time, the absorption band at about 600 nm decreases, a new band at about 680 nm increases and a fluorescence band subsequently appears at ˜708 nm (λex=650 nm).
Based of the time-dependent absorption and emission spectra, corresponding drug cleavage profiles were obtained (see, FIGS. 6A-B) and the drug release rates were quantified by half-lives (τ1/2). The cleavage profiles and half-lives obtained spectrophotometrically and spectrofluorometrically almost coincide. […] The release of CLB from OCTA-G-XCy-CLB in CM (τ1/2˜25 min) is […] faster than that in PB τ1/2 ˜2.5 h. Thus, the drug release for both XCy-CLB and OCTA-G-XCy-CLB in CM is much faster compared to PB. The obtained half-lives of the ester bond cleavage in these media were found in good agreement with some reported data. Linkage of OCTA to the conjugate accelerates the drug release by factor of 6 in PB and 1.3 in CM.
as §2

[4] = Real time fluorescence microscopy monitoring of CLB release in Panc-1 cells; format: cell-based; conditions: human, pH 7.4, Panc-1, 10 min incubation with 10 μM, 37° C., read-out: CLB cleavage half-life τ1/2
Experimental: (§3) In the next step, the inventors investigated the performance of OCTA-G-XCy-CLB in real time monitoring of drug delivery and drug release into human pancreatic cancer cell line (Panc-1). As a negative control, Chinese hamster ovary cell line (CHO) was employed. Panc-1 contains overexpressed somatostatin receptors SSTR-2 and SSTR-5 while the CHO has the decreased number of these receptors. Panc-1 and CHO were incubated at 37° C. for 10 min with 10 μM OCTA-G-XCy-CLB in PBS pH 7.4 containing 3% DMSO and washed thoroughly with PBS pH 7.4 to remove excess conjugate. Then the fluorescence microscopy images were taken over time (FIGS. 7A, B). The fluorescence intensities for both cell lines gradually increase over time signaling the CLB release. […]
(§4) To monitor drug release, Panc-1 and CHO cell lines were grown in six-well culture plates and then washed with PBS (pH 7.4) two times after that incubated for 10 min with 10 μM OCT(N)-G-XCy-CLB in PBS pH 7.4 containing 3% DMSO. […] The washed cell samples were resuspended in PBS and immediately analyzed the fluorescence changes by using fluorescent microscope. […]
(§5) The band intensities in a representative experiment were quantified by creating region of interest (ROI) around each image and the relative fluorescence intensity of each sample was measured (via the “Measure” function) with Image J software.

[5] = Real time fluorescence microscopy monitoring of CLB release in CHO cells (negative control); format: cell-based, Chinese hamster; conditions: hamster, pH 7.4, 10 min incubation with 10 μM, 37° C., read-out: CLB cleavage half-life τ1/2 (converted)
Experimental: as §3, §4, §5

[6] = PB:ACN (4:1, v/v), 25° C., c=0.6 μM
[7] = CM: cell medium pH 7.4 containing 10% methanol
[8] = PB: 10 mM phosphate buffer pH 7.4 containing 10% methanol

Compound: O=C(O)CCCc1ccc(N(CCCl)CCCl)cc1 [CLB, chlorambucil]
Growth Inhibition (GI) / toxicity (Panc-1): neither free OCT, nor free CLB exhibited detectible toxicity | Growth Inhibition (GI) / toxicity (CHO): neither free OCT, nor free CLB exhibited detectible toxicity

Compound: C[N+]1=C(C=CC2=C(OC(=O)CCCc3ccc(N(CCCl)CCCl)cc3)C(=CC=C3N(CCCCCC(=O)O)c4ccccc4C3(C)C)CCC2)C(C)(C)c2ccccc21 [IRD-CLB, 2-(−2-(−2-((4-(4-(bis(2-chloroethyl)amino)phenyl)butanoyl)oxy)-3-(2-(−1-(5-carboxypentyl)-3,3-dimethylindolin-2-ylidene)ethylidene)cyclohex-1-en-1-yl)vinyl)-1,3,3-trimethyl-3H-indol-1-ium]
ΦF ([1]; CM:ACN (4:1, v/v), 25° C.): 6.3% | λmaxAb ([1]; CM:ACN (4:1, v/v), 25° C.): 785 nm | λmaxFl ([1]; CM:ACN (4:1, v/v), 25° C.): 805 nm | emission when excited at 532 nm ([1]; PB and CM): no detectable emission | ΦF ([1]; PB:ACN (4:1, v/v), 25° C.): 2.9% | ε ([1]; PB:ACN (4:1, v/v), 25° C.): 160,000 M^−1cm^−1 | λmaxFl ([1]; PB:ACN (4:1, v/v), 25° C.): 795 nm | λmaxAb [1, 6]: 775 nm

Compound: C[C@@H](O)[C@H](NC(=O)[C@@H]1CSSC[C@H](NC(=O)[C@H](Cc2ccccc2)NC(=O)CCCNC(=O)CCCCC[N+]2=C(/C=C/C3=C4Oc5cc(OC(=O)CCCc6ccc(N(CCCl)CCCl)cc6)ccc5C=C4CCC3)C(C)(C)c3ccccc32)C(=O)N[C@@H](Cc2ccccc2)C(=O)N[C@@H](Cc2c[nH]c3ccccc23)C(=O)N[C@@H](CCCCN)C(=O)N[C@@H]([C@@H](C)O)C(=O)N1)C(N)=O [OCTA-G-XCy-CLB]
λmaxAbs [2, 7]: 604 nm | λmaxFl [2, 7]: No fl. | λmaxAbs [2, 8]: 604 nm | λmaxFl [2, 8]: No fl. | absorption maximum [2]: ~600 nm | fluorescence [2]: not detectable | half-life at 0.5 μM ([3]; bovine, cell medium (contains esterase), in CM (cell medium pH 7.4, esterase present)): ~0.417 h | half-life at 0.5 μM ([3]; phosphate buffer (PB), in PB pH 7.4): ~2.5 h | half-life at 10 μM [4]: ~0.417 h | half-life at 10 μM [5]: ~2.5 h | Growth Inhibition (GI) / toxicity (Panc-1): significantly elevated growth inhibition compared to CHO

ΦF ([1]; CM:ACN (4:1, v/v), 25° C.): 2.6% | λmaxAb ([1]; CM:ACN (4:1, v/v), 25° C.): 526 nm | λmaxFl ([1]; CM:ACN (4:1, v/v), 25° C.): 626 nm | ΦF ([1]; PB:ACN (4:1, v/v), 25° C.): 9.9% | λmaxFl ([1]; PB:ACN (4:1, v/v), 25° C.): 643 nm | λmaxAb [1, 6]: 555 nm
Compound: CN1C(=CC=C2CCCC(=CC=C3N(CCCCCC(=O)O)c4ccccc4C3(C)C)C2=O)C(C)(C)c2ccccc21 [RD, 6-(−3,3-dimethyl-2-(−2-(−2-oxo-3-(2-(−1,3,3-trimethylindolin-2-ylidene)ethylidene)cyclohexylidene)ethylidene)indolin-1-yl)hexanoic acid]

λmaxAbs [2, 7]: 679 nm | λmaxFl [2, 7]: 713 nm | λmaxAbs [2, 8]: 681 nm | λmaxFl [2, 8]: 708 nm | absorption maximum [2]: about 680 nm | fluorescence [2]: around 710 nm
Compound: CC1(C)C(/C=C/C2=C3Oc4cc(O)ccc4C=C3CCC2)=[N+](CCCCCC(=O)O)c2ccccc21 [XCy, (E)-1-(5-carboxypentyl)-2-(2-(6-hydroxy-2,3-dihydro-1H-xanthen-4-yl)vinyl)-3,3-dimethyl-3H-indol-1-ium]

Compound: CC1(C)C(/C=C/C2=C3Oc4cc(OC(=O)CCCc5ccc(N(CCCl)CCCl)cc5)ccc4C=C3CCC2)=[N+](CCCCCC(=O)O)c2ccccc21 [XCy-CLB, (E)-2-(2-(6-((4-(4-(bis(2-chloroethyl)amino)phenyl)butanoyl)oxy)-2,3-dihydro-1H-xanthen-4-yl)vinyl)-1-(5-carboxypentyl)-3,3-dimethyl-3H-indol-1-ium]
λmaxAbs [2, 7]: 602 nm | λmaxFl [2, 7]: No fl. | λmaxAbs [2, 8]: 598 nm | λmaxFl [2, 8]: No fl. | absorption maximum [2]: ~600 nm | fluorescence [2]: not detectable | half-life ([3]; bovine, in CM (cell medium pH 7.4, esterase present)): ~0.667 h | half-life ([3]; phosphate buffer, in PB pH 7.4): ~8 h

Compound: octreotide amide
Growth Inhibition (GI) / toxicity (Panc-1): neither free OCT, nor free CLB exhibited detectible toxicity | Growth Inhibition (GI) / toxicity (CHO): neither free OCT, nor free CLB exhibited detectible toxicity
